Data taken from ChEMBL document CHEMBL4842340, “Development of Cagrilintide, a Long-Acting Amylin Analogue” (J Med Chem, 2021).
Values after ≈ are worked out from the molar mass of the structure shown. *1 amine or outer side, *2 acyl side, *3 side chain or, on linkers, in order; H or OH if unused. Where a SMILES comes first, the peptide text is derived from it. Bridges are numbered along the chain shown (N, C = ends). The star is where a group is joined. C20 diacid = O=C(O)CCCCCCCCCCCCCCCCCCC(=O)*; γGlu = O=C(O)[C@H](CCC(=O)[*:2])N[*:1]

Assays:
[1] = Agonist activity at rat calcitonin receptor expressed in BHK-13 cells assessed as increase in intracellular cAMP concentration incubated for 25 mins by CRE luciferase reporter gene assay; format: cell-based; details: BHK-13, 25 min
[2] = tested on: Rattus norvegicus; test: Reduction in food intake in Sprague-Dawley rat at 30 nmol/kg, sc administered as single dose measured upto 24 hrs relative to control; format: functional; parameters: scale not given: the % may be the effect or the level left; details: time hrs <=24
[3] = Agonist activity at rat AMY3R (CT+RAMP3) expressed in tk-ts13 cells assessed as increase in intracellular cAMP level incuabted for 25 mins by CRE luciferase reporter gene assay; format: cell-based; details: tk-ts13, 25 min
[4] = Agonist activity at human calcitonin receptor expressed in BHK570 cells assessed as increase in intracellular cAMP concentration incubated for 3 hrs in absence of albumin by CRE luciferase reporter gene assay; format: cell-based; details: BHK570, 3 h
[5] = Solubility of the compound in lactate at pH 3 by UPLC analysis; format: physicochemical; details: lactate buffer
[6] = molecular target: Insulin (Homo sapiens) (UniProt P01308); test: Effect on insulin (unknown origin) amyloid fibril formation assessed as lag time in glycyl-glycine buffer at pH 4 measured after 45 hrs by thioflavin-T fluorescence assay
[7] = species on record: Rattus norvegicus; test: Ratio of EC50 for rat calcitonin receptor expressed in BHK-13 cells to EC50 for rat AMY3R (CT+RAMP3) expressed in tk-ts13 cells; format: cell-based
[8] = Solubility of the compound in bis-tris propane at pH 7 by UPLC analysis; format: physicochemical; details: bis-tris propane buffer
[9] = Agonist activity at human AMY3R (CT+RAMP3) expressed in Hollex1 cells incubated for 3 hrs by luminescence assay; format: cell-based; details: Hollex1, 3 h
[10] = Solubility of the compound in bis-tris propane at pH 6 by UPLC analysis; format: physicochemical; details: bis-tris propane buffer
[11] = Solubility of the compound in bis-tris propane at pH 6.5 by UPLC analysis; format: physicochemical; details: bis-tris propane buffer
[12] = species on record: Homo sapiens; test: Ratio of EC50 for human calcitonin receptor expressed in BHK570 cells to EC50 for human AMY3R (CT+RAMP3) expressed in Hollex1 cells; format: cell-based
[13] = molecular target: Insulin (Homo sapiens) (UniProt P01308); test: Effect on insulin (unknown origin) amyloid fibril formation assessed as peptide recovery in glycyl-glycine buffer at pH 4 measured after 45 hrs by thioflavin-T fluorescence assay relative to control; parameters: concentration or dose not given beside the values
[14] = tested on: Rattus norvegicus; test: Reduction in food intake in Sprague-Dawley rat at 30 nmol/kg, sc administered as single dose measured after 24 to 48 hrs relative to control; format: functional; parameters: scale not given: the % may be the effect or the level left; details: time 24-48 hrs
[15] = Solubility of the compound in lactate at pH 4 by UPLC analysis; format: physicochemical; details: lactate buffer
[16] = Solubility of the compound in lactate at pH 5 by UPLC analysis; format: physicochemical; details: lactate buffer
[17] = Displacement of [125I]-calcitonin from human calcitonin receptor expressed in tk-ts 13 cells measured after 120 mins by scintillation proximity assay; format: cell-based; details: tk-ts13
[18] = tested on: Rattus norvegicus; test: Reduction in food intake in Sprague-Dawley rat at 3 nmol/kg, sc administered as single dose measured after 24 to 48 hrs relative to control; format: functional; parameters: scale not given: the % may be the effect or the level left; details: time 24-48 hrs
[19] = Displacement of [125I]-amylin from human AMY3R (CTR+RAMP3) expressed in BHK-13 cells measured after 120 mins by scintillation proximity assay; format: cell-based
[20] = species on record: Homo sapiens; test: Ratio of IC50 for displacement of [125I]-calcitonin from human calcitonin receptor expressed in tk-ts 13 cells to IC50 for displacement of [125I]-amylin from human AMY3R (CTR+RAMP3) expressed in BHK-13 cells; format: cell-based
[21] = Displacement of [125I]-amylin from rat AMY3R (CTR+RAMP3) expressed in BHK-13 cells measured after 120 mins by scintillation proximity assay; format: cell-based
[22] = tested on: Rattus norvegicus; test: Reduction in food intake in Sprague-Dawley rat at 3 nmol/kg, sc administered as single dose measured upto 24 hrs relative to control; format: functional; parameters: scale not given: the % may be the effect or the level left; details: time hrs <=24
[23] = Displacement of [125I]-calcitonin from rat calcitonin receptor expressed in tk-ts 13 cells measured after 120 mins by scintillation proximity assay; format: cell-based; details: tk-ts13
[24] = species on record: Rattus norvegicus; test: Ratio of IC50 for displacement of [125I]-calcitonin from rat calcitonin receptor expressed in tk-ts 13 cells to IC50 for displacement of [125I]-amylin from rat AMY3R (CTR+RAMP3) expressed in BHK-13 cells; format: cell-based
[25] = Solubility of the compound in bis-tris propane at pH 8 by UPLC analysis; format: physicochemical; details: bis-tris propane buffer
[26] = Solubility of the compound in bis-tris propane at pH 7.5 by UPLC analysis; format: physicochemical; details: bis-tris propane buffer

Insulin (Homo sapiens), sequence (P01308 whole entry): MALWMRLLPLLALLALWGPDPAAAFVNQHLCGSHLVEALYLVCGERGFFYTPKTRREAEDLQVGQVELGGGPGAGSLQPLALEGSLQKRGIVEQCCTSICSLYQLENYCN

| SMILES | EC50 [1] [pM] | Activity [2] [%] | EC50 [3] [pM] | EC50 [4] [pM] | solubility [5] [µM] | TIME [6] [h] | Ratio EC50 [7] | solubility [8] [µM] | EC50 [9] [pM] | solubility [10] [µM] | solubility [11] [µM] | Ratio EC50 [12] | Activity [13] [%] | Activity [14] [%] | solubility [15] [µM] | solubility [16] [µM] | other results |
| --- | --- | --- | --- | --- | --- | --- | --- | --- | --- | --- | --- | --- | --- | --- | --- | --- | --- |
| CC[C@H](C)[C@H](NC(=O)[C@@H]1CCCN1C(=O)CNC(=O)[C@H](Cc1ccccc1)NC(=O)[C@H](CC(N)=O)NC(=O)[C@H](CC(N)=O)NC(=O)[C@H](CO)NC(=O)[C@H](CO)NC(=O)[C@H](Cc1cnc[nH]1)NC(=O)[C@H](Cc1cnc[nH]1)NC(=O)[C@H](CC(C)C)NC(=O)[C@H](Cc1ccccc1)NC(=O)[C@H](CCCNC(=N)N)NC(=O)[C@H](C)NC(=O)[C@H](CC(C)C)NC(=O)[C@H](CCCNC(=N)N)NC(=O)[C@H](CCC(N)=O)NC(=O)[C@@H](NC(=O)[C@H](C)NC(=O)[C@@H]1CSSC[C@H](NC(=O)[C@H](Cc2cnc[nH]2)NC(=O)[C@H](Cc2cnc[nH]2)NC(=O)[C@H](Cc2cnc[nH]2)NC(=O)CC[C@H](NC(=O)CCCCCCCCCCCCCCCCCCC(=O)O)C(=O)O)C(=O)N[C@@H](CC(N)=O)C(=O)N[C@@H]([C@@H](C)O)C(=O)N[C@@H](C)C(=O)N[C@@H]([C@@H](C)O)C(=O)N1)[C@@H](C)O)C(=O)N[C@@H](CC(C)C)C(=O)N1CCC[C@H]1C(=O)N1CCC[C@H]1C(=O)N[C@H](C(=O)N[C@@H](CC(N)=O)C(=O)N[C@H](C(=O)NCC(=O)N[C@@H](CO)C(=O)N[C@@H](CC(N)=O)C(=O)N[C@H](C(=O)N[C@@H](Cc1ccc(O)cc1)C(N)=O)[C@@H](C)O)C(C)C)[C@@H](C)O ({C20 diacid-γGlu}-HHHCNTATCATQRLARFLHHSSNNFGPILPPTNVGSNTY-NH2; disulfide 4-9) | 7090 | 65 | 143 | 398 | 200 (≈ 953 µg/mL) | 10 | 50 | 1 (≈ 4.77 µg/mL) | 69 | 200 (≈ 953 µg/mL) | 117 (≈ 558 µg/mL) | 6 | 10 | 25 | 200 (≈ 953 µg/mL) | 200 (≈ 953 µg/mL) |  |
| CC[C@H](C)[C@H](NC(=O)[C@@H]1CCCN1C(=O)CNC(=O)[C@H](Cc1ccccc1)NC(=O)[C@H](CC(N)=O)NC(=O)[C@H](CC(N)=O)NC(=O)[C@H](CO)NC(=O)[C@H](CO)NC(=O)[C@H](Cc1c[nH]cn1)NC(=O)[C@H](Cc1cnc[nH]1)NC(=O)[C@H](CC(C)C)NC(=O)[C@H](Cc1ccccc1)NC(=O)[C@H](CCC(=O)O)NC(=O)[C@H](C)NC(=O)[C@H](CC(C)C)NC(=O)[C@H](CCCNC(=N)N)NC(=O)[C@H](CCC(N)=O)NC(=O)[C@@H](NC(=O)[C@H](C)NC(=O)[C@@H]1CSSC[C@H](NC(=O)[C@H](Cc2cnc[nH]2)NC(=O)CC[C@H](NC(=O)CCCCCCCCCCCCCCCCCCC(=O)O)C(=O)O)C(=O)N[C@@H](CC(N)=O)C(=O)N[C@@H]([C@@H](C)O)C(=O)N[C@@H](C)C(=O)N[C@@H]([C@@H](C)O)C(=O)N1)[C@@H](C)O)C(=O)N[C@@H](CC(C)C)C(=O)N1CCC[C@H]1C(=O)N1CCC[C@H]1C(=O)N[C@H](C(=O)N[C@@H](CC(N)=O)C(=O)N[C@H](C(=O)NCC(=O)N[C@@H](CO)C(=O)N[C@@H](CC(N)=O)C(=O)N[C@H](C(=O)N1CCC[C@H]1C(N)=O)[C@@H](C)O)C(C)C)[C@@H](C)O ({C20 diacid-γGlu}-HCNTATCATQRLAEFLHHSSNNFGPILPPTNVGSNTP-NH2; disulfide 2-7) | 109 |  | 121 | 67 | 200 (≈ 880 µg/mL) | 26 | 1 | 200 (≈ 880 µg/mL) | 91 | 200 (≈ 880 µg/mL) | 200 (≈ 880 µg/mL) | 1 | 100 |  | 200 (≈ 880 µg/mL) | 200 (≈ 880 µg/mL) | IC50 [17]: 264 pM; Activity [18]: 67%; IC50 [19]: 293 pM; Ratio IC50 [20]: 1; IC50 [21]: 74 pM; Activity [22]: 68%; IC50 [23]: 134 pM; Ratio IC50 [24]: 2; solubility [25]: 200 µM (≈ 880 µg/mL); solubility [26]: 200 µM (≈ 880 µg/mL) |
| CC[C@H](C)[C@H](NC(=O)[C@H](CCC(=O)O)NC(=O)CNC(=O)[C@H](Cc1ccccc1)NC(=O)[C@H](CC(N)=O)NC(=O)[C@H](CC(N)=O)NC(=O)[C@H](CO)NC(=O)[C@H](CO)NC(=O)[C@H](CCCNC(=N)N)NC(=O)[C@H](Cc1cnc[nH]1)NC(=O)[C@H](CC(C)C)NC(=O)[C@H](Cc1ccccc1)NC(=O)[C@H](CCC(=O)O)NC(=O)[C@H](C)NC(=O)[C@H](CC(C)C)NC(=O)[C@H](CCCNC(=N)N)NC(=O)[C@H](CCC(N)=O)NC(=O)[C@@H](NC(=O)[C@H](C)NC(=O)[C@@H]1CSSC[C@H](NC(=O)[C@H](Cc2cnc[nH]2)NC(=O)CC[C@H](NC(=O)CCCCCCCCCCCCCCCCCCC(=O)O)C(=O)O)C(=O)N[C@@H](CC(N)=O)C(=O)N[C@@H]([C@@H](C)O)C(=O)N[C@@H](C)C(=O)N[C@@H]([C@@H](C)O)C(=O)N1)[C@@H](C)O)C(=O)N[C@@H](CC(C)C)C(=O)N[C@@H](CO)C(=O)N[C@@H](CCCNC(=N)N)C(=O)N[C@H](C(=O)N[C@@H](CC(N)=O)C(=O)N[C@H](C(=O)NCC(=O)N[C@@H](CO)C(=O)N[C@@H](CC(N)=O)C(=O)N[C@H](C(=O)N[C@@H](Cc1ccc(O)cc1)C(N)=O)[C@@H](C)O)C(C)C)[C@@H](C)O |  | 53 |  |  |  |  |  |  |  |  |  |  |  | 46 |  |  |  |
| CC[C@H](C)[C@H](NC(=O)[C@@H]1CCCN1C(=O)CNC(=O)[C@H](Cc1ccccc1)NC(=O)[C@H](CC(N)=O)NC(=O)[C@H](CC(N)=O)NC(=O)[C@H](CO)NC(=O)[C@H](CO)NC(=O)[C@H](Cc1cnc[nH]1)NC(=O)[C@H](CCCNC(=N)N)NC(=O)[C@H](CC(C)C)NC(=O)[C@H](Cc1ccccc1)NC(=O)[C@H](CCC(=O)O)NC(=O)[C@H](C)NC(=O)[C@H](CC(C)C)NC(=O)[C@H](CCCNC(=N)N)NC(=O)[C@H](CCC(N)=O)NC(=O)[C@@H](NC(=O)[C@H](C)NC(=O)[C@@H]1CSSC[C@H](NC(=O)[C@H](Cc2cnc[nH]2)NC(=O)[C@H](Cc2cnc[nH]2)NC(=O)[C@H](Cc2cnc[nH]2)NC(=O)CC[C@H](NC(=O)CCCCCCCCCCCCCCCCCCC(=O)O)C(=O)O)C(=O)N[C@@H](CC(N)=O)C(=O)N[C@@H]([C@@H](C)O)C(=O)N[C@@H](C)C(=O)N[C@@H]([C@@H](C)O)C(=O)N1)[C@@H](C)O)C(=O)N[C@@H](CC(C)C)C(=O)N1CCC[C@H]1C(=O)N1CCC[C@H]1C(=O)N[C@H](C(=O)N[C@@H](CC(N)=O)C(=O)N[C@H](C(=O)NCC(=O)N[C@@H](CO)C(=O)N[C@@H](CC(N)=O)C(=O)N[C@H](C(=O)N[C@@H](Cc1ccc(O)cc1)C(N)=O)[C@@H](C)O)C(C)C)[C@@H](C)O ({C20 diacid-γGlu}-HHHCNTATCATQRLAEFLRHSSNNFGPILPPTNVGSNTY-NH2; disulfide 4-9) | 6760 | 70 | 82 | 407 | 200 (≈ 952 µg/mL) | 45 | 82 | 9 (≈ 42.8 µg/mL) | 72 | 200 (≈ 952 µg/mL) |  | 6 | 50 | 45 | 200 (≈ 952 µg/mL) | 200 (≈ 952 µg/mL) |  |
